Measured values published in PubChem BioAssay AID1259407 (Chemical Carcinogenesis Research Information System (CCRIS), 2018).
Calls of active or inactive are those of the source. How the calls were made is not given here.

System: CCRIS mutagenicity, Ames/micronucleus/aberration tests
Test: CCRIS mutagenicity studies
[1] = Test System: AMES SALMONELLA TYPHIMURIUM, Strain/Indicator: TA98, Metabolic Activation: NONE, Method: PREINCUBATION
[2] = Test System: AMES SALMONELLA TYPHIMURIUM, Strain/Indicator: TA100, Metabolic Activation: NONE, Method: PREINCUBATION
[3] = Test System: AMES SALMONELLA TYPHIMURIUM, Strain/Indicator: TA1535, Metabolic Activation: NONE, Method: PREINCUBATION
[4] = Test System: AMES SALMONELLA TYPHIMURIUM, Strain/Indicator: TA1537, Metabolic Activation: NONE, Method: PREINCUBATION

CC(C)CO
mutagenic call (Test System: AMES SALMONELLA TYPHIMURIUM, Strain/Indicator: TA97, Metabolic Activation: HAMSTER, LIVER, S-9, AROCLOR 1254 (10 OR 30%), Method: PREINCUBATION): inactive; negative | mutagenic call (Test System: AMES SALMONELLA TYPHIMURIUM, Strain/Indicator: TA97, Metabolic Activation: NONE, Method: PREINCUBATION): inactive; negative | mutagenic call (Test System: AMES SALMONELLA TYPHIMURIUM, Strain/Indicator: TA97, Metabolic Activation: RAT, LIVER, S-9, AROCLOR 1254 (10 OR 30%), Method: PREINCUBATION): inactive; negative | mutagenic call (Test System: AMES SALMONELLA TYPHIMURIUM, Strain/Indicator: TA98, Metabolic Activation: HAMSTER, LIVER, S-9, AROCLOR 1254 (10 OR 30%), Method: PREINCUBATION): inactive; negative | mutagenic call [1]: inactive; negative | mutagenic call (Test System: AMES SALMONELLA TYPHIMURIUM, Strain/Indicator: TA98, Metabolic Activation: RAT, LIVER, S-9, AROCLOR 1254 (10 OR 30%), Method: PREINCUBATION): inactive; negative | mutagenic call (Test System: AMES SALMONELLA TYPHIMURIUM, Strain/Indicator: TA98, Metabolic Activation: RAT, LIVER, S-9, KC 500, Method: PREINCUBATION): inactive; negative | mutagenic call (Test System: AMES SALMONELLA TYPHIMURIUM, Strain/Indicator: TA100, Metabolic Activation: HAMSTER, LIVER, S-9, AROCLOR 1254 (10 OR 30%), Method: PREINCUBATION): inactive; negative | mutagenic call [2]: inactive; negative | mutagenic call (Test System: AMES SALMONELLA TYPHIMURIUM, Strain/Indicator: TA100, Metabolic Activation: RAT, LIVER, S-9, AROCLOR 1254 (10 OR 30%), Method: PREINCUBATION): inactive; negative | mutagenic call (Test System: AMES SALMONELLA TYPHIMURIUM, Strain/Indicator: TA100, Metabolic Activation: RAT, LIVER, S-9, KC 500, Method: PREINCUBATION): inactive; negative | mutagenic call (Test System: AMES SALMONELLA TYPHIMURIUM, Strain/Indicator: TA1535, Metabolic Activation: HAMSTER, LIVER, S-9, AROCLOR 1254 (10 OR 30%), Method: PREINCUBATION): inactive; negative | mutagenic call [3]: inactive; negative | mutagenic call (Test System: AMES SALMONELLA TYPHIMURIUM, Strain/Indicator: TA1535, Metabolic Activation: RAT, LIVER, S-9, AROCLOR 1254 (10 OR 30%), Method: PREINCUBATION): inactive; negative | mutagenic call (Test System: AMES SALMONELLA TYPHIMURIUM, Strain/Indicator: TA1535, Metabolic Activation: RAT, LIVER, S-9, KC 500, Method: PREINCUBATION): inactive; negative | mutagenic call (Test System: AMES SALMONELLA TYPHIMURIUM, Strain/Indicator: TA1537, Metabolic Activation: HAMSTER, LIVER, S-9, AROCLOR 1254 (30%), Method: PREINCUBATION): inactive; negative | mutagenic call [4]: inactive; negative | mutagenic call (Test System: AMES SALMONELLA TYPHIMURIUM, Strain/Indicator: TA1537, Metabolic Activation: RAT, LIVER, S-9, AROCLOR 1254 (30%), Method: PREINCUBATION): inactive; negative | mutagenic call (Test System: AMES SALMONELLA TYPHIMURIUM, Strain/Indicator: TA1537, Metabolic Activation: RAT, LIVER, S-9, KC 500, Method: PREINCUBATION): inactive; negative | mutagenic call (Test System: AMES SALMONELLA TYPHIMURIUM, Strain/Indicator: TA1538, Metabolic Activation: NONE, Method: PREINCUBATION): inactive; negative | mutagenic call (Test System: AMES SALMONELLA TYPHIMURIUM, Strain/Indicator: TA1538, Metabolic Activation: RAT, LIVER, S-9, KC 500, Method: PREINCUBATION): inactive; negative | mutagenic call (Test System: Ames Salmonella typhimurium, Strain/Indicator: TA98, Metabolic Activation: None, Method: Preincubation): inactive; negative | mutagenic call (Test System: Ames Salmonella typhimurium, Strain/Indicator: TA98, Metabolic Activation: Rat, Liver, S-9, Phenobarbital and 5,6-benzoflavone, Method: Preincubation): inactive; negative | mutagenic call (Test System: Ames Salmonella typhimurium, Strain/Indicator: TA100, Metabolic Activation: None, Method: Preincubation): inactive; negative | mutagenic call (Test System: Ames Salmonella typhimurium, Strain/Indicator: TA100, Metabolic Activation: Rat, Liver, S-9, Phenobarbital and 5,6-benzoflavone, Method: Preincubation): inactive; negative | mutagenic call (Test System: Ames Salmonella typhimurium, Strain/Indicator: TA1535, Metabolic Activation: None, Method: Preincubation): inactive; negative | mutagenic call (Test System: Ames Salmonella typhimurium, Strain/Indicator: TA1535, Metabolic Activation: Rat, Liver, S-9, Phenobarbital and 5,6-benzoflavone, Method: Preincubation): inactive; negative | mutagenic call (Test System: Ames Salmonella typhimurium, Strain/Indicator: TA1537, Metabolic Activation: None, Method: Preincubation): inactive; negative | mutagenic call (Test System: Ames Salmonella typhimurium, Strain/Indicator: TA1537, Metabolic Activation: Rat, Liver, S-9, Phenobarbital and 5,6-benzoflavone, Method: Preincubation): inactive; negative | mutagenic call (Test System: CHINESE HAMSTER V-79, Strain/Indicator: V-79 (HPRT)/6-THIOGUANINE, Metabolic Activation: NONE, Method: STANDARD PLATE): inactive; negative | mutagenic call (Test System: CHINESE HAMSTER V-79, Strain/Indicator: V-79 (HPRT)/6-THIOGUANINE, Metabolic Activation: RAT LIVER S-9, Method: STANDARD PLATE): inactive; negative | mutagenic call (Test System: E. COLI, Strain/Indicator: WP2 UVRA, Metabolic Activation: NONE, Method: PREINCUBATION): inactive; negative | mutagenic call (Test System: E. COLI, Strain/Indicator: WP2 UVRA, Metabolic Activation: RAT, LIVER, S-9, KC 500, Method: PREINCUBATION): inactive; negative | mutagenic call (Test System: E. coli, Strain/Indicator: WP2uvrA/pKM101, Metabolic Activation: None, Method: Preincubation): inactive; negative | mutagenic call (Test System: E. coli, Strain/Indicator: WP2uvrA/pKM101, Metabolic Activation: Rat, Liver, S-9, Phenobarbital and 5,6-benzoflavone, Method: Preincubation): inactive; negative

Cc1ccc(OP(=O)(Oc2ccc(C)cc2C)Oc2ccc(C)cc2C)c(C)c1
mutagenic call (Test System: AMES SALMONELLA TYPHIMURIUM, Strain/Indicator: TA98, Metabolic Activation: HAMSTER, LIVER, S-9, AROCLOR 1254 (10%), Method: PREINCUBATION): inactive; negative | mutagenic call [1]: inactive; negative | mutagenic call (Test System: AMES SALMONELLA TYPHIMURIUM, Strain/Indicator: TA98, Metabolic Activation: RAT, LIVER, S-9, AROCLOR 1254 (10%), Method: PREINCUBATION): inactive; negative | mutagenic call (Test System: AMES SALMONELLA TYPHIMURIUM, Strain/Indicator: TA100, Metabolic Activation: HAMSTER, LIVER, S-9, AROCLOR 1254 (10%), Method: PREINCUBATION): inactive; negative | mutagenic call [2]: inactive; negative | mutagenic call (Test System: AMES SALMONELLA TYPHIMURIUM, Strain/Indicator: TA100, Metabolic Activation: RAT, LIVER, S-9, AROCLOR 1254 (10%), Method: PREINCUBATION): inactive; negative | mutagenic call (Test System: AMES SALMONELLA TYPHIMURIUM, Strain/Indicator: TA1535, Metabolic Activation: HAMSTER, LIVER, S-9, AROCLOR 1254 (10%), Method: PREINCUBATION): inactive; negative | mutagenic call [3]: inactive; negative | mutagenic call (Test System: AMES SALMONELLA TYPHIMURIUM, Strain/Indicator: TA1535, Metabolic Activation: RAT, LIVER, S-9, AROCLOR 1254 (10%), Method: PREINCUBATION): inactive; negative | mutagenic call (Test System: AMES SALMONELLA TYPHIMURIUM, Strain/Indicator: TA1537, Metabolic Activation: HAMSTER, LIVER, S-9, AROCLOR 1254 (10%), Method: PREINCUBATION): inactive; negative | mutagenic call [4]: inactive; negative | mutagenic call (Test System: AMES SALMONELLA TYPHIMURIUM, Strain/Indicator: TA1537, Metabolic Activation: RAT, LIVER, S-9, AROCLOR 1254 (10%), Method: PREINCUBATION): inactive; negative

CCNC(=O)/C=C/c1ccc([N+](=O)[O-])o1
mutagenic call [1]: active; positive

O=[N+]([O-])c1cc(-c2ccc(O)c([N+](=O)[O-])c2)ccc1O
mutagenic call [1]: inactive; negative

Nc1nc(NO)c2ncn([C@@H]3O[C@H](CO)[C@@H](O)[C@H]3O)c2n1
mutagenic call (Test System: AMES SALMONELLA TYPHIMURIUM, Strain/Indicator: TA100(TN5-1,8-DNP1011), Metabolic Activation: NONE, Method: STANDARD PLATE): active; positive | mutagenic call (Test System: AMES SALMONELLA TYPHIMURIUM, Strain/Indicator: TA100(TN5-1,8-DNP1012), Metabolic Activation: NONE, Method: STANDARD PLATE): active; positive | mutagenic call (Test System: AMES SALMONELLA TYPHIMURIUM, Strain/Indicator: TA100, Metabolic Activation: NONE, Method: STANDARD PLATE): active; positive

O=C(O)CN(CC(=O)O)C1C[C@H]1N(CC(=O)O)CC(=O)O (some centres undefined)
mutagenic call (Test System: CHINESE HAMSTER V-79, Strain/Indicator: V-79/OUABAIN, Metabolic Activation: NONE, Method: STANDARD PLATE): active; positive | mutagenic call (Test System: UDS RODENT CELLS, Strain/Indicator: THY INCORP (NON-S-PHASE), Metabolic Activation: NONE, Method: AUTORADIOGRAPHY): active; positive
